The source of these data is patent publication US8969413B2.

One series deals with Mice. Put plainly: subcutaneous picrotoxin (scPIC). Type of series: in vivo. The protocol:
Bicuculline (Bic) and Picrotoxin (Pic) are chemoconvulsants that cause clonic seizures in a manner similar to Metrazol (see scMET test). […] Therefore, as much as possible it is useful to differentiate novel AEDs pharmacologically. […]. At a previously determined time of peak effect (TPE), the animals are given a subcutaneous injection of either of the noted chemo-convulsants using the convulsive dose (CD97—a dose of 2.7 or 2.5 mg/kg, for Bic and Pic, respectively). The experimental animals are placed in isolation cages to minimize possible crowding stresses (Swinyard et al., 1961) and observed for the next 30 minutes (for Bic) or 45 minutes (for Pic) for the presence or absence of a seizure. An episode of clonic spasms, approximately 3-5 seconds, of the fore and/or hindlimbs, jaws, or vibrissae is used as the experimental endpoint.

Another series relates to Wistar Albino rats. In kind it is in vivo. Conditions: 20 mg/kg versus vigabatrin 200 mg/kg, 45 and 90 days. The protocol: […]. The formulations for each treatment group were prepared fresh weekly in 0.9% normal saline.
All animals were acclimated for 7 days to the test facility prior to the start of dosing and were housed in individual polycarbonate cages. The cage environment uses a standard 12 hr/12 hr light dark cycle, with standard industrial fluorescent lighting during the light cycle. During the course of the study, the animals were monitored for mortality, moribundity, clinical signs of illness, feed intake, and body weight change. Any animals found in distress for more than 24 hours were humanely euthanized. […]. […] At the conclusion of the dosing phase (5 of each sex for 45 days and 10 of each sex for 90 days), the animals entered a 5-7 day “washout” period, after which electroretinograms (ERGs) were measured for both eyes. The animals were then humanely euthanized, by CO2 asphyxiation in accordance with AVMA guidelines on euthanasia, for post-mortem pathology examinations. […]
The electroretinograms were measured with an Espion^2 ERG system with ColorDome Ganzfeld type illuminator by Diagnosys. […]

For the next series, the target named is T1, hBGT-1 (Homo sapiens, UniProt P48065).
T1 construct: expressed in transfected cells; host or cells: tsA201 cells, transient (PolyFect)
Description: [3H]GABA uptake at human GABA transporters, tsA201 cells. In kind it is cell-based. The protocol: (§1) tsA201 cells were cultured in GlutaMAX-I DMEM supplemented with 10% fetal bovine serum, penicillin (100 U/ml), and streptomycin (100 μg/ml) at 37° C. in a humidified atmosphere of 95% air and 5% CO2. […] J. Biol. Chem. 2007, 282, 19331-19341. […] Quantification was performed by using Microscint™ 20 scintillation fluid (PerkinElmer) and a Packard TopCount microplate scintillation counter.

For the next series, the target named is T2, hGAT-1 (Homo sapiens, UniProt P30531).
T2 construct: expressed in transfected cells; host or cells: tsA201 cells, transient (PolyFect)
Described as above. In kind it is cell-based. The procedure: as §1

Another series concerns the target T3, hGAT-3 (Homo sapiens, UniProt P48066).
T3 construct: expressed in transfected cells; host or cells: tsA201 cells, transient (PolyFect)
The series is described as above. In kind it is cell-based. The protocol: as §1

The target in a further series is T4, hGAT-2 (Homo sapiens, UniProt Q9NSD5).
T4 construct: expressed in transfected cells; host or cells: tsA201 cells, transient (PolyFect)
Described as above. In kind it is cell-based. The procedure:
as §1

Another series relates to Sprague Dawley rats. Put plainly: cocaine induced dopamine surge in nucleus accumbens (FIG. 3). Conditions: 1 mg/kg single dose.

SMILES strings stand for the structures.

T1 sequence (P48065 whole entry): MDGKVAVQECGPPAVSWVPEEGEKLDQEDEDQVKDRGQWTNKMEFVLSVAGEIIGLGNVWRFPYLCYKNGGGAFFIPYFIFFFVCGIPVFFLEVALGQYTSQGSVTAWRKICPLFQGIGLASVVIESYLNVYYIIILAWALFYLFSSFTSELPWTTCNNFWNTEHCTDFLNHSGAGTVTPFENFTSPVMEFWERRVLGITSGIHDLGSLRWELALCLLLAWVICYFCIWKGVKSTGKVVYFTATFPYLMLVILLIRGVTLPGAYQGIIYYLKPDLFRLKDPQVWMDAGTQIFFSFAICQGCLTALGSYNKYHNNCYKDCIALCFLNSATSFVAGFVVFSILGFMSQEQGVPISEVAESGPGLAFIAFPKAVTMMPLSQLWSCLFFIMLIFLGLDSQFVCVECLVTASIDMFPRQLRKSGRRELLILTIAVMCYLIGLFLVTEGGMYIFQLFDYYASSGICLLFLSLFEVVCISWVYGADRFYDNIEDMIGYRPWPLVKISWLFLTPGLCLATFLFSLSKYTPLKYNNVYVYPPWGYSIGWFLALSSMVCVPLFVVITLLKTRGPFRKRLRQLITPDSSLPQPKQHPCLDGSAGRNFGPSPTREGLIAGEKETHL
T2 sequence (P30531 whole entry): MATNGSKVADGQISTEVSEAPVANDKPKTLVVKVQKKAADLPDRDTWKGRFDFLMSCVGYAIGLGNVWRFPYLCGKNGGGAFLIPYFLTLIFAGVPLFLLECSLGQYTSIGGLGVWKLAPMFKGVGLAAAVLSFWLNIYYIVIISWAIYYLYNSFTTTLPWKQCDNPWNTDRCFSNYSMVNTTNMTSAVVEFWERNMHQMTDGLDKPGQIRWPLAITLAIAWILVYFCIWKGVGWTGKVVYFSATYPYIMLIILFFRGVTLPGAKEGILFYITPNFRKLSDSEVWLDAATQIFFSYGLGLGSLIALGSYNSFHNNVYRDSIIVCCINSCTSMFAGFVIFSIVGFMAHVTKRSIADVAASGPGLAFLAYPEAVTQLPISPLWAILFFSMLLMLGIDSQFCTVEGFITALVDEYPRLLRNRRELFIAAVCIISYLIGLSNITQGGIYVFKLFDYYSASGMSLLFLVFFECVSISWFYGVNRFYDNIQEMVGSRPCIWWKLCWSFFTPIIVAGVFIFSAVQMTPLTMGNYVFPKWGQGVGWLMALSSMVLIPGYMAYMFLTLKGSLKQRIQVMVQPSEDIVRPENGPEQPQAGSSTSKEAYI
T3 sequence (P48066 whole entry): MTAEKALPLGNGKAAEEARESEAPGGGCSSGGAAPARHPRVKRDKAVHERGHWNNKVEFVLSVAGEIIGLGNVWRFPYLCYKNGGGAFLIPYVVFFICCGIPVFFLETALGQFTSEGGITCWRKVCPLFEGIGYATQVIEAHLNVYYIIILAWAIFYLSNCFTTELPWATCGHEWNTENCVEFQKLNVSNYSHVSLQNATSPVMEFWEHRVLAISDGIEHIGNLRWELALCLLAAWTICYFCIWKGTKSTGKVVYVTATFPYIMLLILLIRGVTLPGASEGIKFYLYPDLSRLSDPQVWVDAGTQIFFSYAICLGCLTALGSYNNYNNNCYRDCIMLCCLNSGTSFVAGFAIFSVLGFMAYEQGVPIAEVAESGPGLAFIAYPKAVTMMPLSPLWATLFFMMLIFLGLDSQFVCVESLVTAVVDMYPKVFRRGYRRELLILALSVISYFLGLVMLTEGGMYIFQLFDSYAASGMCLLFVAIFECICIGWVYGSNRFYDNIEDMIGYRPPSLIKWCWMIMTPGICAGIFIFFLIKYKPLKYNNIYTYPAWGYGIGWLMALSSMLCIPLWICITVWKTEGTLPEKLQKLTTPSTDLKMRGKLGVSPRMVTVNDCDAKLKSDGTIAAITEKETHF
T4 sequence (Q9NSD5 whole entry): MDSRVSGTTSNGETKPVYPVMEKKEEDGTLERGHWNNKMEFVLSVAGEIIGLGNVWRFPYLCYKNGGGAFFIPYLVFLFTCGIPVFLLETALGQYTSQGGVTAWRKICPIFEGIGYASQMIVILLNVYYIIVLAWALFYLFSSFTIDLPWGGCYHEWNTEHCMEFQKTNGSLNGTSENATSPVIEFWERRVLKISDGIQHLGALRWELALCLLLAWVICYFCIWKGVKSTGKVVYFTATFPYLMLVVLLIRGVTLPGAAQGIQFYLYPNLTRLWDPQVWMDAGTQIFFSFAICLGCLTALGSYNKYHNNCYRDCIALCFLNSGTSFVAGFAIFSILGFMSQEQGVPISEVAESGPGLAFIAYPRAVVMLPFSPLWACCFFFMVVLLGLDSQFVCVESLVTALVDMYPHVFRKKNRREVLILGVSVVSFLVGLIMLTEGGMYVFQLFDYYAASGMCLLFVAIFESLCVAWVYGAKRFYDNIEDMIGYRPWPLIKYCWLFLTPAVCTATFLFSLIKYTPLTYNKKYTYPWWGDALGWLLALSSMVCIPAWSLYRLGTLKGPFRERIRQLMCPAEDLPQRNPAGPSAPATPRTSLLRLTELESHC

As to `N[C@H]1C[C@@H](C(=O)O)CC1=C(F)F` [CPP-115], the median effective dose (ED50) in the series with Mice (Mus musculus, ip, read-out: scPIC ED50) amounted to 60.7 mg/kg. In addition, the “scPIC TPE” value in the series on Mice (Single IP drug dose, 2.5 mg/kg PIC) was “TPE 2 hours”. The “visual field defects compared with vigabatrin” value in the series on Wistar Albino rats was “less visual field defects than vigabatrin”. Besides, the IC50 against hBGT-1, against hGAT-1, at hGAT-3 and against hGAT-2 was over 1 mM throughout. Also, the “dopamine levels after cocaine challenge” value in the series on Sprague Dawley rats is recorded as “less than 300 times baseline”.

Usually ED50 stands for the midpoint of the dose-response relation. In general, IC50 refers to the midpoint of a concentration-inhibition curve.
